Laboratory results: article PMC8286599 (Gut Pathogens, 2021)
Like-named read-outs stand apart in the source and are kept apart here.

What was measured:
[1] = tested on: MDR-S. Enteritidis strains; test: Stability assay, cationic salts (MIC)
Excerpt: (§4) To explore the utility of phytochemicals as therapeutic molecules and their stability, individual phytochemicals were exposed to cationic salts, and different pH levels followed by analysing their MIC and MBC values against test strains as described earlier.
(§5) Subsequent to exposure to varied conditions, the antimicrobial activity of the phytochemicals was estimated by determining their MIC and MBC values against all the selected MDR strains of EAEC, S. Enteritidis, and S. Typhimurium as described earlier.

MDR-EAEC strains [2] = test: MIC and MBC by broth microdilution with resazurin; type: cell-based, enteroaggregative Escherichia coli; details: infant diarrhoea isolate
Excerpt: (§1) The characterised MDR field strains of EAEC (E1; E2; E3), S. Enteritidis (S1; S2; S3), and S. Typhimurium (ST1; ST2; ST3) maintained in the laboratory repository of Meat Safety Laboratory of ICAR-National Research Centre on Meat, Hyderabad re-validated using PCR assays were used to evaluate the in vitro antibacterial efficacy of phytochemicals. E. coli ATCC 25922 was used as the quality control strain.
(§2) The antimicrobial efficacy of identified phytochemicals against multi-drug resistant EAEC and NTS strains was determined by estimating the minimum inhibitory concentration (MIC) and minimum bactericidal concentrations (MBC).
(§3) Subsequent to the incubation period, resazurin dye (0.015 %) was added to all the wells to determine the dye reduction (pink) and thereby the bacterial inhibition.

MDR-EAEC strains [3] = test: Stability assay, pH (MIC)
Excerpt: as §4, §5

[4] = tested on: MDR-S. Typhimurium strains; test: MIC and MBC by broth microdilution with resazurin; type: cell-based, Salmonella Typhimurium; details: poultry droppings isolate
Excerpt: as §1, §2, §3

Haemolytic assay = type: cell-based; details: read-out: Haemolysis; for hemolysis at 0.5 X MIC: 0.50X MIC
Experimental: The haemolytic assay of the individual phytochemical was performed by measuring the release of haemoglobin from sheep and human ‘O’ erythrocytes at 540 nm. The percentage of haemolysis was calculated as (Asample – APBS)/ (ATriton−X – APBS) ×100, in which Asample is the absorbance of phytochemical treatment, APBS is the absorbance of untreated control with PBS, and ATriton−X is the absorbance of lysed cells treated with Triton X-100 measured at 540 nm.

MDR-EAEC strains [5] = test: Stability assay, cationic salts (MIC)
Excerpt: as §4, §5

[6] = tested on: MDR-S. Typhimurium strains; test: Stability assay, cationic salts (MIC)
Excerpt: as §4, §5

[7] = tested on: MDR-S. Typhimurium strains; test: Stability assay, pH (MIC)
Excerpt: as §4, §5

[8] = tested on: MDR-S. Enteritidis strains; test: MIC and MBC by broth microdilution with resazurin; type: cell-based, Salmonella Enteritidis; details: poultry droppings isolate
Excerpt: as §1, §2, §3

[9] = tested on: MDR-S. Enteritidis strains; test: Stability assay, pH (MIC)
Excerpt: as §4, §5

[10] = human 'O' erythrocytes, Human RBCs

Cc1ccc(C(C)C)c(O)c1 [Thymol, thymol]
MIC with cationic salt ([1]; 2 mM MgCl2, strain S1): 0.5 µl/ml
MIC with cationic salt ([1]; 2 mM MgCl2, strain S2): 0.5 µl/ml
MIC with cationic salt ([1]; 2 mM MgCl2, strain S3): 0.5 µl/ml
MIC with cationic salt ([1]; 150 mM NaCl, strain S1): 0.5 µl/ml
MIC with cationic salt ([1]; 150 mM NaCl, strain S2): 0.5 µl/ml
MIC with cationic salt ([1]; 150 mM NaCl, strain S3): 1.0 µl/ml
MBC (MDR-EAEC strains [2]; EAEC (E1)): 0.25 µl/ml
MIC (MDR-EAEC strains [2]; EAEC (E1)): 0.25 µl/ml
MBC (MDR-EAEC strains [2]; EAEC (E2)): 0.50 µl/ml
MIC (MDR-EAEC strains [2]; EAEC (E2)): 0.25 µl/ml
MBC (MDR-EAEC strains [2]; EAEC (E3)): 0.25 µl/ml
MIC (MDR-EAEC strains [2]; EAEC (E3)): 0.25 µl/ml
MIC at given pH (MDR-EAEC strains [3]; pH 4, strain E1): 0.25 µl/ml
MIC at given pH (MDR-EAEC strains [3]; pH 4, strain E2): 0.25 µl/ml
MIC at given pH (MDR-EAEC strains [3]; pH 4, strain E3): 0.25 µl/ml
MIC at given pH (MDR-EAEC strains [3]; pH 6, strain E1): 0.25 µl/ml
MIC at given pH (MDR-EAEC strains [3]; pH 6, strain E2): 0.25 µl/ml
MIC at given pH (MDR-EAEC strains [3]; pH 6, strain E3): 0.25 µl/ml
MIC at given pH (MDR-EAEC strains [3]; pH 8, strain E1): 0.5 µl/ml
MIC at given pH (MDR-EAEC strains [3]; pH 8, strain E2): 0.25 µl/ml
MIC at given pH (MDR-EAEC strains [3]; pH 8, strain E3): 0.5 µl/ml
MBC ([4]; S. Typhimurium (ST1)): 0.50 µl/ml
MIC ([4]; S. Typhimurium (ST1)): 0.25 µl/ml
MBC ([4]; S. Typhimurium (ST2)): 0.50 µl/ml
MIC ([4]; S. Typhimurium (ST2)): 0.25 µl/ml
MBC ([4]; S. Typhimurium (ST3)): 0.50 µl/ml
MIC ([4]; S. Typhimurium (ST3)): 0.06 µl/ml
hemolysis at 0.25 X MIC (Haemolytic assay; [10]): 1.22%
hemolysis at 0.5 X MIC (Haemolytic assay; [10]): 1.91%
hemolysis at 1 X MIC (Haemolytic assay; [10]): 2.86%
hemolysis at 2 X MIC (Haemolytic assay; [10]): 13.5%
hemolysis at 4 X MIC (Haemolytic assay; [10]): 39.4%
hemolysis at 8 X MIC (Haemolytic assay; [10]): 48.5%
hemolysis at 0.25 X MIC (Haemolytic assay; sheep erythrocytes, Sheep RBCs): 0%
hemolysis at 0.5 X MIC (Haemolytic assay; sheep erythrocytes, Sheep RBCs): 0.22%
hemolysis at 1 X MIC (Haemolytic assay; sheep erythrocytes, Sheep RBCs): 1.49%
hemolysis at 2 X MIC (Haemolytic assay; sheep erythrocytes, Sheep RBCs): 11.4%
hemolysis at 4 X MIC (Haemolytic assay; sheep erythrocytes, Sheep RBCs): 21.6%
hemolysis at 8 X MIC (Haemolytic assay; sheep erythrocytes, Sheep RBCs): 47.6%
MIC with cationic salt (MDR-EAEC strains [5]; 2 mM MgCl2, strain E1): 0.25 µl/ml
MIC with cationic salt (MDR-EAEC strains [5]; 2 mM MgCl2, strain E2): 0.25 µl/ml
MIC with cationic salt (MDR-EAEC strains [5]; 2 mM MgCl2, strain E3): 0.25 µl/ml
Change of MIC values with cationic salts (MDR-EAEC strains [5]; 150 mM NaCl and 2 mM MgCl2, MDR-EAEC strains): remained almost similar
MIC with cationic salt (MDR-EAEC strains [5]; 150 mM NaCl, strain E1): 0.25 µl/ml
MIC with cationic salt (MDR-EAEC strains [5]; 150 mM NaCl, strain E2): 0.25 µl/ml
MIC with cationic salt (MDR-EAEC strains [5]; 150 mM NaCl, strain E3): 0.25 µl/ml
MIC with cationic salt ([6]; 2 mM MgCl2, strain ST1): 0.5 µl/ml
MIC with cationic salt ([6]; 2 mM MgCl2, strain ST2): 1.0 µl/ml
MIC with cationic salt ([6]; 2 mM MgCl2, strain ST3): 0.5 µl/ml
MIC with cationic salt ([6]; 150 mM NaCl, strain ST1): 0.5 µl/ml
MIC with cationic salt ([6]; 150 mM NaCl, strain ST2): 0.5 µl/ml
MIC with cationic salt ([6]; 150 mM NaCl, strain ST3): 0.5 µl/ml
MIC at given pH ([7]; pH 4, strain ST1): 0.5 µl/ml
MIC at given pH ([7]; pH 4, strain ST2): 0.5 µl/ml
MIC at given pH ([7]; pH 4, strain ST3): 0.5 µl/ml
MIC at given pH ([7]; pH 6, strain ST1): 0.5 µl/ml
MIC at given pH ([7]; pH 6, strain ST2): 1.0 µl/ml
MIC at given pH ([7]; pH 6, strain ST3): 0.5 µl/ml
MIC at given pH ([7]; pH 8, strain ST1): 0.5 µl/ml
MIC at given pH ([7]; pH 8, strain ST2): 1.0 µl/ml
MIC at given pH ([7]; pH 8, strain ST3): 1.0 µl/ml
MBC ([8]; S. Enteritidis (S1)): 0.50 µl/ml
MIC ([8]; S. Enteritidis (S1)): 0.12 µl/ml
MBC ([8]; S. Enteritidis (S2)): 0.50 µl/ml
MIC ([8]; S. Enteritidis (S2)): 0.25 µl/ml
MBC ([8]; S. Enteritidis (S3)): 0.50 µl/ml
MIC ([8]; S. Enteritidis (S3)): 0.25 µl/ml
MIC at given pH ([9]; pH 4, strain S1): 0.5 µl/ml
MIC at given pH ([9]; pH 4, strain S2): 0.5 µl/ml
MIC at given pH ([9]; pH 4, strain S3): 0.5 µl/ml
MIC at given pH ([9]; pH 6, strain S1): 0.5 µl/ml
MIC at given pH ([9]; pH 6, strain S2): 0.5 µl/ml
MIC at given pH ([9]; pH 6, strain S3): 0.5 µl/ml
MIC at given pH ([9]; pH 8, strain S1): 0.5 µl/ml
MIC at given pH ([9]; pH 8, strain S2): 1.0 µl/ml
MIC at given pH ([9]; pH 8, strain S3): 0.5 µl/ml
